Experimental data reported in US10981864B2, “Crystalline modifications of N-(4,5-bismethanesulfonyl-2-methylbenzoyl)guanidine hydrochloride and N-(4,5-bismethanesulfonyl-2-methylbenzoyl)guanidine salts” (MERCK PATENT GMBH, priority 2016, dated 2021).
Where “and” joins values, the source holds several entries; their conditions need not be identical. Identical values can stand only once. Counter-ions that a name gives are not always drawn.

Key:
Assay type in all cases: physicochemical
[1] = Water Vapour Sorption isotherm (DVS), hygroscopicity acc. to Ph. Eur.; details: for Water uptake levels (Water Vapour Sorption): 25° C.
Description: As used herein, unless stated otherwise, Water Vapour Sorption isotherm measurements are carried out on a DVS-1 or a DVS-Intrinsic system from SMS.
A second endothermic event occurs at >180° C., which is due to melting of the dehydrated form. This is followed by immediate re-crystallisation (exothermic event), and subsequent melting of the re-crystallized phase at >240° C. […] DSC scan of form HCl-H1 was acquired on a Mettler-Toledo DSC 821 with a heating rate of 5 K/min, using nitrogen purge gas at 50 mL/min. […] Form HCl-H1 can be classified as non-hygroscopic acc. to Ph. Eur. criteria (section 5.11.). […] Water Vapour Sorption isotherm was acquired on a DVS-1 system from SMS. • Dissolution level of form HCl-H1 in Fed-State Simulated Intestinal Fluid [FeSSIF, pH 5.0] at 37° C. was determined to be approx. 1.50 mg/mL (after 15 min), approx. 4.16 mg/mL (after 60 min), and approx. 4.54 mg/mL (after 120 min), respectively (see example 17).

[2] = Mini-dissolution in FeSSIF medium (pH 5.0), dissolved quantity by HPLC; details: for Dissolution levels in FeSSIF pH 5.0: FeSSIF pH 5.0, 37° C.; for Dissolution behavior compared to prior-art form HCl-H1: biorelevant media, Fed-state conditions (FeSSIF, pH 5.0)
Description: Approximately 10-12 mg of N-(4,5-bis-methanesulfonyl-2-methyl-benzoyl)guanidine form HCl-H1 (HCl salt hydrate form, prior-art), HCl salt anhydrous forms (forms HCl-A1, HCl-A2, HCl-A3), and novel salt forms [phosphate salt (form Phosphate-NF1), maleate salt (form Maleate-NF2), oxalate salt (form Oxalate-NF1), citrate salt (form citrate-NF1), sulfate salt (form Sulfate-NF3), succinate salt (form Succinate-NF1), malonate salt (form Malonate-NF1), besylate salt (form Besylate-NF1), p-tosylate salt (form Tosylate-NF1), malate salt (form Malate-NF1), fumarate salt (form Fumarate-NF1), tartrate salt (form Tartrate-NF1)] are weighed into 4 mL glass vials, and dispersed in 4 mL FeSSIF medium (pH 5.0, Acetate buffer capacity increased by factor 4 to ensure stable pH conditions over course of dissolution experiments).
All dispersions are agitated at 37° C. for up to 2 hours. At defined time intervals (5 min, 15 min, 60 min, 120 min), 0.4 mL sample aliquots of homogeneous dispersions are withdrawn by a syringe, and filtrated via syringe filter adapters (PTFE, 0.2 μm). Clear filtrates are diluted (1:20) with respective Acetate blank buffer, and diluted samples analyzed by HPLC for dissolved quantities of N-(4,5-bis-methanesulfonyl-2-methyl-benzoyl)-guanidine.

[3] = Thermal behaviour (DSC/TGA), thermal stability; details: for Thermal stability (mp/dec): DSC/TGA 5 K/min
Description: As used herein, unless stated otherwise, the DSC measurements are carried out using a Mettler-Toledo DSC 821 with a heating rate of 5 K/min, using nitrogen purge gas at 50 mL/min.
As used herein, unless stated otherwise, the TGA measurements are carried out using a Mettler-Toledo TGA 851 with a heating rate of 5 K/min, using nitrogen purge gas at 50 mL/min.

[4] = relative humidity range 0-80% rh
[5] = entire relative humidity range 0-98% rh
[6] = relative humidity range 0-90% rh

| SMILES | Hygroscopicity classification acc. to Ph. Eur. criteria (section 5.11.) [1] | Water uptake levels (Water Vapour Sorption) [1, 4] | Dissolution levels in FeSSIF pH 5.0 ([2]; 5 min) | Dissolution levels in FeSSIF pH 5.0 ([2]; 15 min) | Dissolution levels in FeSSIF pH 5.0 ([2]; 60 min) | Dissolution levels in FeSSIF pH 5.0 ([2]; 120 min) | Dissolution behavior compared to prior-art form HCl-H1 [2] | Thermal stability (mp/dec) [3] | Water uptake levels (Water Vapour Sorption) [1, 5] | Water uptake levels (Water Vapour Sorption) [1, 6] | Tendency to undergo hydrate formation ([1]; upon exposure to elevated RH levels) | Thermally stable up to [3] | Water uptake levels (Water Vapour Sorption) ([1]; relative humidity range 10-90% rh) |
| --- | --- | --- | --- | --- | --- | --- | --- | --- | --- | --- | --- | --- | --- |
| Cc1cc(S(C)(=O)=O)c(S(C)(=O)=O)cc1C(=O)NC(=N)N [Malonate-NF1, N-(4,5-bis-methanesulfonyl-2-methyl-benzoyl)-guanidine] | slightly hygroscopic | ≤ 1.0 wt % | 3.527 mg/mL | 5.340 mg/mL | 5.77±0.02 mg/mL and 5.770 mg/mL | 5.79±0.02 mg/mL and 5.790 mg/mL | improved dissolution behavior | > 190 °C |  |  |  |  |  |
| Cc1cc(S(C)(=O)=O)c(S(C)(=O)=O)cc1C(=O)NC(=N)N [HCl-A2, N-(4,5-bis-methanesulfonyl-2-methyl-benzoyl)-guanidine] | non-hygroscopic | 0.1 wt % | 0.990 mg/mL | 1.19±0.02 mg/mL and 1.193 mg/mL | 1.90±0.02 mg/mL and 1.897 mg/mL | 2.21±0.02 mg/mL and 2.213 mg/mL |  | > 240 °C |  |  |  |  |  |
| Cc1cc(S(C)(=O)=O)c(S(C)(=O)=O)cc1C(=O)NC(=N)N [HCl-A3, N-(4,5-bis-methanesulfonyl-2-methyl-benzoyl)-guanidine] | non-hygroscopic |  | 0.418 mg/mL | 0.74±0.02 mg/mL and 0.738 mg/mL | 2.51±0.02 mg/mL and 2.506 mg/mL | 3.78±0.02 mg/mL and 3.781 mg/mL |  | > 240 °C | ≤ 0.4 wt % |  |  |  |  |
| Cc1cc(S(C)(=O)=O)c(S(C)(=O)=O)cc1C(=O)NC(=N)N.Cl.O [HCl-H1, N-(4,5-bismethanesulfonyl-2-methylbenzoyl)-guanidine hydrochloride hydrate, reference compound] | non-hygroscopic |  | 0.494 mg/mL |  |  |  |  |  | ≤ 0.2 wt % |  |  |  |  |
| Cc1cc(S(C)(=O)=O)c(S(C)(=O)=O)cc1C(=O)NC(=N)N [Fumarate-NF1, N-(4,5-bis-methanesulfonyl-2-methyl-benzoyl)-guanidine] | slightly hygroscopic |  | 2.606 mg/mL | 4.22±0.02 mg/mL and 4.222 mg/mL | 4.34±0.02 mg/mL and 4.337 mg/mL | 4.36±0.02 mg/mL and 4.361 mg/mL | improved dissolution behavior |  |  |  |  |  |  |
| Cc1cc(S(C)(=O)=O)c(S(C)(=O)=O)cc1C(=O)NC(=N)N [Phosphate-NF1, N-(4,5-bis-methanesulfonyl-2-methyl-benzoyl)-guanidine] | slightly hygroscopic |  | 3.373 mg/mL | 5.92±0.02 mg/mL and 5.919 mg/mL | 6.35±0.02 mg/mL and 6.345 mg/mL | 6.35±0.02 mg/mL and 6.345 mg/mL | improved dissolution behavior | > 230 °C |  | ≤ 1.0 wt % | no tendency to undergo hydrate formation |  |  |
| Cc1cc(S(C)(=O)=O)c(S(C)(=O)=O)cc1C(=O)NC(=N)N [Tosylate-NF1, N-(4,5-bis-methanesulfonyl-2-methyl-benzoyl)-guanidine] | slightly hygroscopic | 1.0 wt % | 1.961 mg/mL | 4.85±0.02 mg/mL and 4.850 mg/mL | 5.28±0.02 mg/mL and 5.285 mg/mL | 2.86±0.02 mg/mL and 2.859 mg/mL | improved dissolution behavior |  |  |  |  | ~180 °C |  |
| Cc1cc(S(C)(=O)=O)c(S(C)(=O)=O)cc1C(=O)NC(=N)N [Succinate-NF1, N-(4,5-bis-methanesulfonyl-2-methyl-benzoyl)-guanidine] | non-hygroscopic | ≤ 0.2 wt % | 1.105 mg/mL | 3.26±0.02 mg/mL and 3.260 mg/mL | 5.10±0.02 mg/mL and 5.104 mg/mL | 5.03±0.02 mg/mL and 5.032 mg/mL | improved dissolution behavior | > 200 °C |  |  |  |  |  |
| Cc1cc(S(C)(=O)=O)c(S(C)(=O)=O)cc1C(=O)NC(=N)N [Malate-NF1, N-(4,5-bis-methanesulfonyl-2-methyl-benzoyl)-guanidine] | hygroscopic |  | 5.510 mg/mL | 5.51±0.02 mg/mL and 5.510 mg/mL | 5.51±0.02 mg/mL and 5.510 mg/mL | 4.27±0.02 mg/mL and 4.275 mg/mL | improved dissolution behavior |  |  | 7.5 wt % |  |  |  |
| Cc1cc(S(C)(=O)=O)c(S(C)(=O)=O)cc1C(=O)NC(=N)N (racemic) [Tartrate-NF1, N-(4,5-bis-methanesulfonyl-2-methyl-benzoyl)-guanidine] | slightly hygroscopic |  | 5.165 mg/mL | 5.17±0.02 mg/mL and 5.165 mg/mL | 5.17±0.02 mg/mL and 5.165 mg/mL | 5.17±0.02 mg/mL | improved dissolution behavior |  |  | ≤ 1.0 wt % |  |  |  |
| Cc1cc(S(C)(=O)=O)c(S(C)(=O)=O)cc1C(=O)NC(=N)N [HCl-A1, N-(4,5-bis-methanesulfonyl-2-methyl-benzoyl)-guanidine] |  |  | 0.541 mg/mL | 0.87±0.02 mg/mL and 0.866 mg/mL | 2.53±0.02 mg/mL and 2.535 mg/mL | 2.76±0.02 mg/mL and 2.765 mg/mL |  |  |  |  |  |  |  |
| Cc1cc(S(C)(=O)=O)c(S(C)(=O)=O)cc1C(=O)NC(=N)N [HBr-NF1, N-(4,5-bis-methanesulfonyl-2-methyl-benzoyl)-guanidine] | non-hygroscopic |  |  |  |  |  |  |  |  |  |  |  | 4.3-4.4 wt % |
| Cc1cc(S(C)(=O)=O)c(S(C)(=O)=O)cc1C(=O)NC(=N)N [Maleate-NF1, N-(4,5-bis-methanesulfonyl-2-methyl-benzoyl)-guanidine] |  |  |  |  |  |  |  | > 170 °C |  |  |  |  |  |
